# Measurements published in US5391744A (priority 1993, dated 1995).
# “Also recorded” adds a separate entry of the source. Read-outs that look alike come from different tables or passages of the source.
# Columns and labels:
# [1] = system: rats trained to discriminate cocaine
# [2] = system: rats trained to discriminate cocaine; assay: animal or person; settings: Rattus norvegicus, ip, 0.25 h, read-out: ED50 (50% cocaine-lever responding)
# dopamine transporter [3] = settings: in words; literature; cited from earlier work
# nonhuman primates = settings: in words; literature; cited from earlier work
# dopamine transporter [4] = molecular target: T1, dopamine transporter (Rattus norvegicus, UniProt P23977); parameters: from tissue; host or cells: rat striatal membranes; settings: 0.5 nM [^3 H]-1b; rat striata; F. I. Carroll et al.; cited from earlier work
# T1 sequence (P23977 whole entry): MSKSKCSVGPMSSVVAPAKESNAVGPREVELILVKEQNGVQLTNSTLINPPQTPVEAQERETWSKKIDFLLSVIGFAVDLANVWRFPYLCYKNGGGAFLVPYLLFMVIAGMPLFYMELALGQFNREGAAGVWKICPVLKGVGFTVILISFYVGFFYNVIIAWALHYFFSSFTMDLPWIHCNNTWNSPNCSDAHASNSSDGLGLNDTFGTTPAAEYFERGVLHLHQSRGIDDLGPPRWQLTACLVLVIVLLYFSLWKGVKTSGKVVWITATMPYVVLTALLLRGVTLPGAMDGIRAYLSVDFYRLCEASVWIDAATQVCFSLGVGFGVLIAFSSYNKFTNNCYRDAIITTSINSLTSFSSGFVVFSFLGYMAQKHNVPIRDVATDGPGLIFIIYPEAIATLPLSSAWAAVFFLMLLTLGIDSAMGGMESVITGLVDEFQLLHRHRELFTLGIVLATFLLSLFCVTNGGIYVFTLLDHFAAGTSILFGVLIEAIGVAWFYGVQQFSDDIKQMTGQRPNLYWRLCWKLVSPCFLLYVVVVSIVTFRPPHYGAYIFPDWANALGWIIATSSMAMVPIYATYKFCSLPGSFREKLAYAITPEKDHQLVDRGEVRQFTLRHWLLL
# [5] = molecular target: T2, dopamine transporter (high-affinity uptake of [^3 H]dopamine into striatal nerve endings) (Rattus norvegicus, UniProt P23977); assay: inhibition of high-affinity uptake of [^3 H]dopamine into striatal nerve endings (synaptosomes); assay type: biochemical
# T2 construct: striatal nerve endings (synaptosomes); from tissue; host or cells: striatal nerve endings (synaptosomes)
# T2 sequence (P23977 whole entry): as above
# dopamine transporter [6] = molecular target: T1, dopamine transporter; assay: displacement of [^3 H]mazindol binding from rat striatal membranes; settings: for potency / affinity increase over cocaine, mazindol binding: relative to (-)-cocaine
# [7] = dose-response test, 0.625 mg/kg, 15 min, mean ± S.E.M.
# [8] = dose-response test, 1.25 mg/kg, 15 min, mean ± S.E.M.
# [9] = dose-response test, 2.5 mg/kg, 15 min, mean ± S.E.M.
# [10] = dose-response test, 5.0 mg/kg, 15 min, mean ± S.E.M.
# [11] = dose-response test, 10.0 mg/kg, 15 min, mean ± S.E.M.
# [12] = temporal test, 10.0 mg/kg, 5 min, mean ± S.E.M.
# [13] = temporal test, 10.0 mg/kg, 15 min, mean ± S.E.M.
# [14] = temporal test, 10.0 mg/kg, 60 min, mean ± S.E.M.
# [15] = temporal test, 10.0 mg/kg, 120 min, mean ± S.E.M.
# [16] = mean ± SE (N), striatal synaptosomes, read-out: IC50 [^3 H] Dopamine Uptake
structure (smiles),measurement,setting,value
"COC(=O)[C@H]1[C@@H](OC(=O)c2ccccc2)C[C@@H]2CC[C@H]1N2C [(-)-cocaine, methyl 3-(benzoyloxy) -8-methyl-8-azabicyclo [3.2.1]octane-2 carboxylate, reference compound]",duration of complete cocaine-like response,[1]; cocaine 10 mg/kg,approximately 60 min
same,injection period eliciting complete cocaine-like response,[1]; cocaine 10 mg/kg,5 min
same,response type at 120 min,"[1]; cocaine, 120 min injection period, in words",elicited primarily saline-appropriate responding
same,n/N (animals completing 20 responses / tested),"[1]; dose-response test, 0.625 mg/kg, 15 min",7/7
same,% Drug responses,[1]; [7],6 ± 2%
same,Rate (responses/min),[1]; [7],27.3 ± 5 responses/min
same,n/N (animals completing 20 responses / tested),"[1]; dose-response test, 1.25 mg/kg, 15 min",7/7
same,% Drug responses,[1]; [8],44 ± 18%
same,Rate (responses/min),[1]; [8],21.3 ± 5 responses/min
same,n/N (animals completing 20 responses / tested),"[1]; dose-response test, 2.5 mg/kg, 15 min",7/7
same,% Drug responses,[1]; [9],61 ± 16%
same,Rate (responses/min),[1]; [9],31.6 ± 16 responses/min
same,n/N (animals completing 20 responses / tested),"[1]; dose-response test, 5.0 mg/kg, 15 min",7/7
same,% Drug responses,[1]; [10],98 ± 2%
same,Rate (responses/min),[1]; [10],89.0 ± 16 responses/min
same,n/N (animals completing 20 responses / tested),"[1]; dose-response test, 10.0 mg/kg, 15 min",7/7
same,% Drug responses,[1]; [11],99 ± 1%
same,Rate (responses/min),[1]; [11],75.8 ± 13 responses/min
same,response rates,"[1]; in words, across test doses",fairly stable across all test doses
same,substitution for the cocaine cue / drug-appropriate responding,"[1]; in words, dose-dependence over the tested doses",increased in a dose-dependent manner
same,n/N (animals completing 20 responses / tested),"[1]; temporal test, 10.0 mg/kg, 5 min",7/7
same,% Drug responses,[1]; [12],85 ± 13%
same,Rate (responses/min),[1]; [12],28.2 ± 8 responses/min
same,n/N (animals completing 20 responses / tested),"[1]; temporal test, 10.0 mg/kg, 15 min",7/7
same,% Drug responses,[1]; [13],99 ± 1%
same,Rate (responses/min),[1]; [13],75.8 ± 13 responses/min
same,n/N (animals completing 20 responses / tested),"[1]; temporal test, 10.0 mg/kg, 30 min",7/7
same,% Drug responses,"[1]; temporal test, 10.0 mg/kg, 30 min, mean",100%
same,Rate (responses/min),"[1]; temporal test, 10.0 mg/kg, 30 min, mean ± S.E.M.",60.6 ± 11 responses/min
same,n/N (animals completing 20 responses / tested),"[1]; temporal test, 10.0 mg/kg, 60 min",7/7
same,% Drug responses,[1]; [14],81 ± 14%
same,Rate (responses/min),[1]; [14],23.0 ± 4 responses/min
same,n/N (animals completing 20 responses / tested),"[1]; temporal test, 10.0 mg/kg, 120 min",7/7
same,% Drug responses,[1]; [15],31 ± 18%
same,Rate (responses/min),[1]; [15],27.7 ± 7 responses/min
same,ED50,[2],1.7 mg/kg
same,binding to / inhibition of the dopamine transporter,dopamine transporter [3],binds to the dopamine transporter and inhibits dopamine transport
"COC(=O)[C@H]1[C@@H](c2ccccc2)C[C@@H]2CC[C@H]1N2C [Compound 1a, 3β-phenyltropane-2β-carboxylic acid methyl ester]",potency in behavioral studies,nonhuman primates,most potent compounds in binding and behavioral studies
same,binding to / inhibition of the dopamine transporter,dopamine transporter [3],most potent compounds in binding and behavioral studies
"COC(=O)[C@H]1[C@@H](c2ccc(F)cc2)C[C@@H]2CC[C@H]1N2C [Compound 1b, 3β-(p-fluorophenyl)tropane-2β-carboxylic acid methyl ether]",potency in behavioral studies,nonhuman primates,most potent compounds in binding and behavioral studies
same,binding to / inhibition of the dopamine transporter,dopamine transporter [3],most potent compounds in binding and behavioral studies
COC(=O)[C@H]1[C@@H](c2ccc(I)cc2)C[C@@H]2CC[C@H]1N2C [Compound 1c],"potency relative to (-)-cocaine, inhibition of [^3 H]-1b binding",dopamine transporter [4],78 times
"COC(=O)[C@H]1[C@@H](c2ccc(Cl)cc2)C[C@@H]2CC[C@H]1N2C [Compound 1d, 3β-(p-chlorophenyl)tropane-2β-carboxylic acid methyl ester, reference compound]",IC50,[5],3.2 ± 0.1 nM
same,"potency relative to (-)-cocaine, inhibition of [^3 H]-1b binding",dopamine transporter [4],85 times
same,IC50,dopamine transporter [6],1.7 ± 0.1 nM
"C=C[C@H]1[C@@H](OC(=O)c2ccccc2)C[C@@H]2CC[C@H]1N2C [Compound 2a, 3β-(Benzoyloxy)-2β-vinyltropane]",IC50,[5]; [16],1120 ± 390 nM
same,"fold less potent than cocaine, dopamine uptake",[5]; relative to (-)-cocaine,two-fold less potent
same,activity relative to parent structure (cocaine),"dopamine transporter [6]; Table I data, in words",not substantially less active than the parent structure
"CN1[C@H]2CC[C@@H]1[C@@H](/C=C/Cl)[C@@H](OC(=O)c1ccccc1)C2 [Compound 2b, 3β-(Benzoyloxy)-2β-[(E)-2-chlorovinyl]tropane]",IC50,[5]; [16],368 ± 190 nM
same,"potency / affinity increase over cocaine, mazindol binding",dopamine transporter [6],approximate twofold higher affinity; also recorded: about two-fold more potent than cocaine
"CN1[C@H]2CC[C@@H]1[C@@H](/C=C/Cl)[C@@H](c1ccc(Cl)cc1)C2 [Compound 2d, 3β-(4-Chlorophenyl)-2β-[(E)-2-chlorovinyl]tropane]",IC50,[5],1.26 ± 0.3 nM
same,IC50,dopamine transporter [6],0.72 ± 0.06 nM
same,potency of 2d relative to 2c,"dopamine transporter [6]; relative to 2c, binding affinity",doubling the potency
"CCOC(=O)/C=C/[C@H]1[C@@H](OC(=O)c2ccccc2)C[C@@H]2CC[C@H]1N2C [Compound 2e, 3β-(Benzoyloxy)-2β-[(E)-2-(ethoxycarbonyl)vinyl]tropane]",IC50,[5]; [16],310 ± 10 nM
same,"potency increase over cocaine, dopamine uptake",[5]; relative to (-)-cocaine,4-5 times
same,IC50,dopamine transporter [6],50 ± 10 nM
same,"potency / affinity increase over cocaine, mazindol binding",dopamine transporter [6],4-5 fold
"CCOP(=O)(/C=C/[C@H]1[C@@H](OC(=O)c2ccccc2)C[C@@H]2CC[C@H]1N2C)OCC [Compound 2f, 3β-Benzoyloxy-2β-[(E)-2-(diethoxyphosphono)vinyl]tropane]",IC50,[5],5500 ± 70 nM
same,inhibition of dopamine uptake,[5]; in words,found to inhibit dopamine uptake
same,"fold less potent than cocaine, dopamine uptake",[5]; relative to (-)-cocaine,about 10 fold
same,IC50,dopamine transporter [6],4850 ± 470 nM
OC1(c2ccc(Cl)cc2)c2ccccc2C2=NCCN21 (stereo not drawn) [mazindol],potency in maintaining self-administration,nonhuman primates,potent in maintaining self-administration
same,binding to / inhibition of the dopamine transporter,dopamine transporter [3],potent inhibitors of binding at the transport site for dopamine
COC(=O)C(c1ccccc1)C1CCCCN1 (stereo not drawn) [methylphendiate],potency in maintaining self-administration,nonhuman primates,potent in maintaining self-administration
same,binding to / inhibition of the dopamine transporter,dopamine transporter [3],potent inhibitors of binding at the transport site for dopamine
CN1Cc2c(N)cccc2C(c2ccccc2)C1 (stereo not drawn) [nomifensine],potency in maintaining self-administration,nonhuman primates,potent in maintaining self-administration
